Laboratory results reported in ChEMBL document CHEMBL1201862, “PubChem BioAssay data set” (2004).
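Step 1: Grow cells in 96-well plates. Step 2: Expose to compound for 48 hours at 5 concentrations. Step 3: Interpolate endpoints linearly; if unreached, use highest concentration. GI50: concentration for 50% inhibition of growth.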 The source made the active and inactive calls. Rule as the data show it: active = GI50 up to about 1.1 µM and inactive = higher.

What was measured:
Assay in all cases: NCI tumour cell line growth inhibition, 48 h
[1] = system: DMS-114
[2] = system: XF498
[3] = system: LXFL 529
[4] = system: DLD-1
[5] = system: DMS-273
[6] = system: KM-20L2
[7] = system: SNB-78
[8] = system: HOP-18
[9] = system: RXF 631

SMILES | GI50 [1] | GI50 [2] | GI50 [3] | GI50 [4] | GI50 [5] | GI50 [6] | GI50 [7] | GI50 [8] | GI50 [9]
CC(C)COC1Sc2ccccc2S1 | 12.5 µM (inactive) | > 10 µM (inactive) | 20.7 µM (inactive) | 16.4 µM (inactive) | 19.8 µM (inactive) | 17.5 µM (inactive) | 27.9 µM (inactive) | 16.5 µM (inactive) | 
CC(=O)O/N=C/c1ncccc1CO | > 100 µM (inactive) | > 100 µM (inactive) | > 100 µM (inactive) | > 100 µM (inactive) | > 100 µM (inactive) | > 100 µM (inactive) |  | > 100 µM (inactive) | > 100 µM (inactive)
CC1(C)OC2CC3COC(=O)C3CC2O1 (centres undefined) | > 100 µM (inactive) |  | > 100 µM (inactive) | > 100 µM (inactive) | > 100 µM (inactive) | > 100 µM (inactive) | > 100 µM (inactive) | > 100 µM (inactive) | > 100 µM (inactive)
COc1ccc2c(-c3cc4ccccc4o3)cc(=O)oc2c1 |  | 21.3 µM (inactive) | > 76.2 µM (inactive) | > 100 µM (inactive) | 61.8 µM (inactive) | > 100 µM (inactive) | 35.2 µM (inactive) | 48.6 µM (inactive) | 36.9 µM (inactive)
O=C(Nc1c(O)[nH]c(=S)[nH]c1=O)c1ccco1 | > 100 µM (inactive) |  | > 100 µM (inactive) |  |  | > 100 µM (inactive) | > 100 µM (inactive) | > 100 µM (inactive) | 
Cc1ccc(S(=O)(=O)OCC23CCC(C2)C2CC23)cc1 (centres undefined) | > 100 µM (inactive) |  | > 100 µM (inactive) | > 100 µM (inactive) | > 100 µM (inactive) | > 100 µM (inactive) |  | > 100 µM (inactive) | 
N#C/C(=C\c1ccc(O)c(O)c1)c1c(C#N)c(N)nn1-c1ccccc1 |  |  | 8.65 µM (inactive) | 18.5 µM (inactive) | 6.92 µM (inactive) | 38.1 µM (inactive) | 14.6 µM (inactive) | 1.04 µM (active) | 
COc1cc2nc(NCCCCCNC(=O)c3ccco3)nc(N)c2cc1OC | 19.9 µM (inactive) |  |  |  | 49.9 µM (inactive) | 32.4 µM (inactive) | 28.2 µM (inactive) | > 100 µM (inactive) | 26.1 µM (inactive)
O=[N+]([O-])c1ccccc1/C=N/C12CC3CC(CC(C3)C1)C2 |  | > 100 µM (inactive) | 45.5 µM (inactive) | 36.4 µM (inactive) | 34.6 µM (inactive) | 51.1 µM (inactive) | 47.1 µM (inactive) | > 100 µM (inactive) | > 100 µM (inactive)
O=C(N/C(=C\c1ccc(/C=C(\NC(=O)c2ccccc2)c2nc3c(O)nc(S)nc3[nH]2)cc1)c1nc2c(O)nc(S)nc2[nH]1)c1ccccc1 | 34.3 µM (inactive) | > 100 µM (inactive) | 35.9 µM (inactive) | 64.9 µM (inactive) | > 100 µM (inactive) | > 100 µM (inactive) | > 100 µM (inactive) | > 100 µM (inactive) | 62.4 µM (inactive)
C=C(Br)C(C)(Cl)CCC(Br)C(C)(C)Br (centres undefined) | 25.4 µM (inactive) |  | 83 µM (inactive) | 91.8 µM (inactive) | 39.4 µM (inactive) |  | > 100 µM (inactive) | > 100 µM (inactive) | 
COc1cc(C(C)O)c[n+](CCC2CNc3ccccc32)c1 (centres undefined) | 91.4 µM (inactive) | > 100 µM (inactive) | > 100 µM (inactive) | > 100 µM (inactive) | > 100 µM (inactive) | 43 µM (inactive) |  |  | 
CCOC(=N)/C(=C1\OC(=N)C(c2ccc(Cl)cc2)=C1O)c1ccc(Cl)cc1 | 17.3 µM (inactive) | 11.4 µM (inactive) | 14.7 µM (inactive) | 15.2 µM (inactive) | 14.7 µM (inactive) | 18.5 µM (inactive) | 25.6 µM (inactive) | 19 µM (inactive) | 25.2 µM (inactive)
CN(C)C(=O)c1ccc([N+](=O)[O-])cc1 | > 100 µM (inactive) |  | > 100 µM (inactive) | > 100 µM (inactive) | > 100 µM (inactive) | > 100 µM (inactive) | > 100 µM (inactive) |  | 
Nc1nc2c3c(ncn3CC(O)CO2)n1 (centres undefined) | > 100 µM (inactive) |  | > 100 µM (inactive) | > 100 µM (inactive) | > 100 µM (inactive) | > 100 µM (inactive) | > 100 µM (inactive) | > 100 µM (inactive) | > 100 µM (inactive)
O/N=C1/CCC/C1=C\c1ccccc1 |  | 29.9 µM (inactive) | > 100 µM (inactive) | > 100 µM (inactive) | > 100 µM (inactive) | > 100 µM (inactive) | > 100 µM (inactive) | > 100 µM (inactive) | 
